# Columns and labels:
# Zymoseptoria tritici = assay: Leaf blotch of wheat (SEPTTR) disease control on wheat seedlings; assay type: in vivo; set-up: key to SEPTTR 1DP, HV activity at 100 ppm (% control rating) / SEPTTR 3DC, HV activity at 100 ppm (% control rating) / SEPTTR disease control, 1DP / SEPTTR disease control, 3DC / SEPTTR 1DP disease control rating, HV activity / SEPTTR 3DC disease control rating, HV activity / SEPTTR 3DC, LV activity at 125.1 g/H (% Control rating) / SEPTTR 1DP, LV activity at 125.1 g/H (% Control rating) / SEPTTR 1DP disease control rating, LV activity at 125.1 g/H / SEPTTR 3DC disease control rating, LV activity at 125.1 g/H / SEPTTR 3DC disease control rating, HV activity at 100 ppm / SEPTTR 1DP disease control rating, HV activity at 100 ppm / HV activity at 100 ppm SEPTTR 3DC (disease control rating) / HV activity at 100 ppm SEPTTR 1DP (disease control rating) / LV activity at 125.1 g/H SEPTTR 1DP (disease control rating) / LV activity at 125.1 g/H SEPTTR 3DC (disease control rating): A: > 80; B: ≤ 80; C: Not Tested; D: No Activity Observed in the Reported Assay; details: for SEPTTR 1DP disease control rating, HV activity / SEPTTR 3DC disease control rating, HV activity: HV application at 100 ppm; for SEPTTR 1DP disease control rating, HV activity / SEPTTR 1DP disease control rating, LV activity / SEPTTR 1DP, LV activity at 125.1 g/H (% Control rating): 1 Day Protectant; for SEPTTR 1DP disease control rating, HV activity / SEPTTR 3DC disease control rating, HV activity / SEPTTR 1DP disease control rating, LV activity / SEPTTR 3DC disease control rating, LV activity: wheat leaf blotch; for SEPTTR 3DC disease control rating, HV activity / SEPTTR 3DC disease control rating, LV activity / SEPTTR 3DC, LV activity at 125.1 g/H (% Control rating): 3 Day Curative; for SEPTTR 1DP disease control rating, LV activity / SEPTTR 3DC disease control rating, LV activity: Low volume application at 125.1 g/H; for SEPTTR 1DP, LV activity at 125.1 g/H (% Control rating) / SEPTTR 3DC, LV activity at 125.1 g/H (% Control rating): low volume application
# Puccinia triticina = assay: Wheat brown rust (PUCCRT) disease control on wheat seedlings; assay type: in vivo; set-up: key to PUCCRT 3DC, HV activity at 100 ppm (% control rating) / PUCCRT disease control, 3DC / PUCCRT 1DP disease control rating, HV activity / PUCCRT 3DC disease control rating, HV activity / PUCCRT 3DC, LV activity at 125.1 g/H (% Control rating) / PUCCRT 1DP, LV activity at 125.1 g/H (% Control rating) / PUCCRT 3DC disease control rating, LV activity at 125.1 g/H / PUCCRT 1DP disease control rating, LV activity at 125.1 g/H / PUCCRT 3DC disease control rating, HV activity at 100 ppm / PUCCRT 1DP disease control rating, HV activity at 100 ppm / HV activity at 100 ppm PUCCRT 3DC (disease control rating) / LV activity at 125.1 g/H PUCCRT 1DP (disease control rating) / LV activity at 125.1 g/H PUCCRT 3DC (disease control rating): A: > 80; B: ≤ 80; C: Not Tested; D: No Activity Observed in the Reported Assay; details: for PUCCRT 1DP disease control rating, HV activity / PUCCRT 3DC disease control rating, HV activity: HV application at 100 ppm; for PUCCRT 1DP disease control rating, HV activity / PUCCRT 1DP disease control rating, LV activity / PUCCRT 1DP, LV activity at 125.1 g/H (% Control rating): 1 Day Protectant; for PUCCRT 1DP disease control rating, HV activity / PUCCRT 3DC disease control rating, HV activity / PUCCRT 1DP disease control rating, LV activity / PUCCRT 3DC disease control rating, LV activity: wheat brown rust; for PUCCRT 3DC disease control rating, HV activity / PUCCRT 3DC disease control rating, LV activity / PUCCRT 3DC, LV activity at 125.1 g/H (% Control rating): 3 Day Curative; for PUCCRT 1DP disease control rating, LV activity / PUCCRT 3DC disease control rating, LV activity: Low volume application at 125.1 g/H; for PUCCRT 1DP, LV activity at 125.1 g/H (% Control rating) / PUCCRT 3DC, LV activity at 125.1 g/H (% Control rating): low volume application
SMILES,"SEPTTR 1DP disease control rating, HV activity (Zymoseptoria tritici)","SEPTTR 3DC disease control rating, HV activity (Zymoseptoria tritici)","PUCCRT 1DP disease control rating, HV activity (Puccinia triticina)","PUCCRT 3DC disease control rating, HV activity (Puccinia triticina)","SEPTTR 1DP disease control rating, LV activity (Zymoseptoria tritici)","SEPTTR 3DC disease control rating, LV activity (Zymoseptoria tritici)","PUCCRT 1DP disease control rating, LV activity (Puccinia triticina)","PUCCRT 3DC disease control rating, LV activity (Puccinia triticina)","SEPTTR 1DP, LV activity at 125.1 g/H (% Control rating) (Zymoseptoria tritici)","SEPTTR 3DC, LV activity at 125.1 g/H (% Control rating) (Zymoseptoria tritici)","PUCCRT 1DP, LV activity at 125.1 g/H (% Control rating) (Puccinia triticina)","PUCCRT 3DC, LV activity at 125.1 g/H (% Control rating) (Puccinia triticina)"
COc1ccnc(C(=O)NC(C)C(=O)OC(C)C(Oc2cccc3ccccc23)C(C)C)c1O (stereo not drawn) [Cmpd 434],A (> 80),D,A (> 80),D,,,,,,,,
CCCOC(C(C)C)C(C)OC(=O)C(C)NC(=O)c1nccc(OC)c1O (stereo not drawn) [Cmpd 435],D,D,B (≤ 80),B (≤ 80),,,,,,,,
COc1ccnc(C(=O)NC(C)C(=O)OC(C)C(Oc2ccccc2)c2cccs2)c1O (stereo not drawn) [Cmpd 436],A (> 80),B (≤ 80),B (≤ 80),B (≤ 80),,,,,,,,
C=CCC(Oc1ccccc1)C(C)OC(=O)C(C)NC(=O)c1nccc(OC)c1O (stereo not drawn) [Cmpd 437],B (≤ 80),A (> 80),A (> 80),A (> 80),,,,,,,,
CCCC(Oc1ccccc1)C(C)OC(=O)C(C)NC(=O)c1nccc(OC)c1O (stereo not drawn) [Cmpd 438],A (> 80),A (> 80),A (> 80),A (> 80),,,,,,,,
C=CCC(Oc1ccc(Cl)cc1Cl)C(C)OC(=O)C(C)NC(=O)c1nccc(OC)c1O (stereo not drawn) [Cmpd 439],B (≤ 80),D,A (> 80),A (> 80),,,,,,,,
CCC(C)C(Oc1ccccc1)C(C)OC(=O)C(C)NC(=O)c1nccc(OC)c1O (stereo not drawn) [Cmpd 440],A (> 80),A (> 80),A (> 80),A (> 80),,,,,,,,
COc1ccnc(C(=O)NC(C)C(=O)OC(C)C(OCC2CC2)c2cccc(-c3ccccc3)c2)c1O (stereo not drawn) [Cmpd 442],D,B (≤ 80),B (≤ 80),B (≤ 80),,,,,,,,
CCCC(NC(=O)c1nccc(OC)c1OCOC(C)=O)C(=O)OC(C)C(CCc1ccccc1)OCC(C)C (stereo not drawn) [Cmpd 444],A (> 80),A (> 80),A (> 80),B (≤ 80),,,,,,,,
CCC(Cc1ccccc1)C(OCC(C)C)C(C)OC(=O)CNC(=O)c1nccc(OC)c1OCOC(C)=O (stereo not drawn) [Cmpd 445],B (≤ 80),D,A (> 80),A (> 80),,,,,,,,
CCCOC(CC)C(Oc1ccccc1)C(C)OC(=O)C(NC(=O)c1nccc(OC)c1OCOC(C)=O)C(C)C (stereo not drawn) [Cmpd 447],A (> 80),B (≤ 80),A (> 80),A (> 80),,,,,,,,
CCCOC(CC)C(Oc1ccccc1)C(C)OC(=O)C(CC(C)C)NC(=O)c1nccc(OC)c1OCOC(C)=O (stereo not drawn) [Cmpd 448],B (≤ 80),B (≤ 80),A (> 80),B (≤ 80),,,,,,,,
CCCOC(CC)C(Oc1ccccc1)C(C)OC(=O)C(NC(=O)c1nccc(OC)c1OCOC(C)=O)C(C)CC (stereo not drawn) [Cmpd 449],A (> 80),B (≤ 80),A (> 80),A (> 80),,,,,,,,
CCCOC(CC)C(Oc1ccccc1)C(C)OC(=O)C(C)NC(=O)c1nccc(OC)c1OC(C)=O (stereo not drawn) [Cmpd 450],A (> 80),A (> 80),A (> 80),A (> 80),B (≤ 80),B (≤ 80),A (> 80),A (> 80),,,,
CCCOC(CC)C(Oc1ccccc1)C(C)OC(=O)C(NC(=O)c1nccc(OC)c1OC(C)=O)C(C)C (stereo not drawn) [Cmpd 451],B (≤ 80),A (> 80),A (> 80),A (> 80),,,,,,,,
CCCOC(CC)C(Oc1ccccc1)C(C)OC(=O)C(CC(C)C)NC(=O)c1nccc(OC)c1OC(C)=O (stereo not drawn) [Cmpd 452],B (≤ 80),B (≤ 80),A (> 80),A (> 80),,,,,,,,
CCCOC(CC)C(Oc1ccccc1)C(C)OC(=O)C(NC(=O)c1nccc(OC)c1OC(C)=O)C(C)CC (stereo not drawn) [Cmpd 453],B (≤ 80),B (≤ 80),A (> 80),A (> 80),,,,,,,,
CCC(Cc1ccccc1)C(OCC(C)C)C(C)OC(=O)C(C)NC(=O)c1nccc(OC)c1OCOC(C)=O (stereo not drawn) [Cmpd 454],A (> 80),A (> 80),A (> 80),A (> 80),,,,,,,,
C=CC(OCCC)C(Oc1ccccc1)C(C)OC(=O)C(C)NC(=O)c1nccc(OC)c1OC(C)=O (stereo not drawn) [Cmpd 456],A (> 80),A (> 80),A (> 80),A (> 80),A (> 80),A (> 80),A (> 80),A (> 80),,,,
CC[C@H](Cc1ccc(F)cc1)[C@@H](Oc1ccccc1)[C@H](C)OC(=O)[C@H](C)NC(=O)c1nccc(OC)c1OC(C)=O [Cmpd 469],,,,,,,,,A (> 80),A (> 80),A (> 80),A (> 80)
CC[C@H](Cc1ccc(OC)cc1)[C@@H](Oc1ccccc1)[C@H](C)OC(=O)[C@H](C)NC(=O)c1nccc(OC)c1OCOC(C)=O [Cmpd 470],,,,,,,,,A (> 80),A (> 80),A (> 80),A (> 80)
CC[C@H](Cc1ccc(F)cc1)[C@@H](Oc1ccccc1)[C@H](C)OC(=O)[C@H](C)NC(=O)c1nccc(OC)c1OCOC(C)=O [Cmpd 471],,,,,,,,,A (> 80),A (> 80),A (> 80),A (> 80)
CC[C@H](Cc1ccc(OC)cc1)[C@@H](Oc1ccccc1)[C@H](C)OC(=O)[C@H](C)NC(=O)c1nccc(OC)c1OC(=O)C(C)C [Cmpd 472],,,,,,,,,A (> 80),A (> 80),A (> 80),B (≤ 80)
CC[C@H](Cc1ccc(F)cc1)[C@@H](Oc1ccccc1)[C@H](C)OC(=O)[C@H](C)NC(=O)c1nccc(OC)c1OC(=O)C(C)C [Cmpd 473],,,,,,,,,B (≤ 80),B (≤ 80),A (> 80),D
CCC(CCOC)C(Oc1ccccc1)C(C)OC(=O)C(C)NC(=O)c1nccc(OC)c1OC(C)=O (stereo not drawn) [Cmpd 481],,,,,,,,,B (≤ 80),A (> 80),A (> 80),A (> 80)

# Reference: US20180000085A1, “USE OF PICOLINAMIDE COMPOUNDS WITH FUNGICIDAL ACTIVITY” (DOW AGROSCIENCES LLC, priority 2014, published 2018)
